Test results: ChEMBL document CHEMBL1129700, “Utilization of wieland furoxan synthesis for preparation of 4-aryl-1,2,5-oxadiazole-3-yl carbamate derivatives having potent anti-HIV activity” (Bioorg Med Chem Lett, 1996)

How the values were obtained:
MT4 [1] = test: Tested for 50% effective concentration based on the inhibition of HIV-I induced cytopathic effect in MT-4 cells; assay type: functional, cell-based; conditions: Homo sapiens
MT4 [2] = test: Tested for 50% cytotoxic concentration based on the reduction of viability in mock-infected MT-4 cells; assay type: functional; conditions: Homo sapiens
[3] = Selectivity index based on the ratio of CC50 to EC50; assay type: functional

SMILES	EC50 (MT4 [1]) [µM]	CC50 (MT4 [2]) [µM]	SI [3]
Cc1cn([C@H]2C[C@H](N=[N+]=[N-])[C@@H](CO)O2)c(=O)[nH]c1=O [ZIDOVUDINE]	0.004	3.2	800
CCCN(C)C(=O)Oc1nonc1-c1ccccc1	2	13	6.5
CCCN(C)C(=O)Oc1nsnc1-c1c(Cl)cccc1Cl			10000
CN(C)C(=O)Oc1nsnc1-c1ccccc1	5.6	46.8	8
CCCN(C)C(=O)Oc1no[n+]([O-])c1-c1c(Cl)cccc1Cl	0.12	8.6	72
CCCN(C)C(=O)Oc1no[n+]([O-])c1-c1ccccc1	20	25	1
